According to patent US20250169495A1, “COMPOSITIONS AND METHODS FOR CONTROLLING DROSOPHILA FLIES” (Rutgers, The State University of New Jersey, priority 2023, published 2025):

tested on: Drosophila suzukii adults; experiment: Multiple choice bioassay #2: known and putative repellents; type: in vivo; conditions: 50 μL neat; six traps per arena; 24 h; n=6
Experimental: Within each arena, six gated traps were positioned randomly in a circle (40 cm diameter) at equal distance with each trap 20 cm apart along the circumference. Each gated trap contained ˜5 g of store-bought organic blueberry fruit (n=5), as described elsewhere herein. One of the six traps served as a control (with blueberry fruit only) and the remaining five traps had one of the repellents added to the blueberry fruit. Each volatile (50 μL, neat) was released from a 1 mL polyethylene vial with a piece of cotton placed inside each trap (control traps had vials with cotton but without the volatile). A vial with a cotton ball soaked with deionized water was placed in the middle of the arena. Roughly 150 D. suzukii adults (1:1 male: female ratio) were released inside each arena and the number and sex of flies inside treatment and control traps was recorded after 24 h. The experiment started at 1:00 p.m., was replicated 6 times, and was done in a laboratory under 22±2° C., 55±5% RH, 16:8 (L:D) h. Data from multiple choice assays on the percent of male and female D. suzukii adults responding to each volatile were compared using ANOVA (Minitab version 17; Minitab Inc., State College, PA, USA). The ANOVA model included treatment, sex, and their interaction as fixed factors and block (replicate) as a random factor. A multi-comparison Tukey test (Minitab) was used to determine differences among treatments. Percent data were arcsine square-root transformed prior to ANOVA. Pairwise choice assays were analyzed using G-tests with William's correction. Non-responders were excluded from the statistical analyses.

SMILES | strength of repellency among the five repellents (rank)
CC1CCCC2(C)CCCCC12O (stereo not shown) [geosmin] | the least repellent

tested on: Drosophila suzukii adults; experiment: Multiple choice bioassay #1: anthracnose-induced volatiles, gated traps with blueberries; type: in vivo; conditions: 50 μL neat volatile added to blueberry fruit in gated trap; 15 traps per arena; 24 h; n=4
Experimental: These bioassays were done in arenas that consisted of a dome cage (60 cm width×60 cm length x 60 cm height; BugDorm-2120 Insect tent; shop.bugdorm.com) (FIG. 1A). Within each arena, 15 gated traps were positioned randomly in a circle (40 cm diameter) at equal distance with each trap 8.4 cm apart along the circumference (FIG. 1A). Each gated trap consisted of 50 mL polystyrene tubes (Fisher Scientific, Nazareth, PA, USA) covered with aluminum foil and sealed with Parafilm®, with a 4 mm-diameter hole in the center of the Parafilm to provide an entrance to flies. All traps had equal quantities (ca. 5 g) of store-bought organic blueberry fruit (n=5); fruit were sterilized with bleach prior to the study (10% bleach for 2 min, rinsed three times in distilled water). One of the 15 traps served as a control (with blueberry fruit only) and the remaining 14 traps had one of the anthracnose volatile compounds added to the blueberry fruit. The 14 compounds tested were: 3-hydroxy-2-butanone, styrene, (E)-2-hexen-1-ol, ethyl 3-hydroxy-3-methylbutanoate, 2-methyl-1-butanol, ethyl propanoate, 2-methyl-1-propanol, diethyl carbonate, 2-methylpropanal, 3-methyl-1-butanol, ethyl 2-methylpropanoate, ethyl butanoate, ethyl (E)-but-2-enoate, and 3-methyl-3 buten-1-ol (see Results). Each volatile (50 μL, neat) was released from a 1 mL polyethylene vial (Globe Scientific Inc., Paramus, NJ, USA) with a piece of cotton placed inside each trap (control traps had vials with cotton but without the volatile). A vial with a cotton ball soaked with deionized water was placed in the middle of the arena to provide flies with water during the experiment. Roughly 300 D. suzukii adults (1:1 male: female ratio) were released inside each arena and the number and sex of flies inside treatment and control traps was recorded after 24 h. The experiment started at 1:00 p.m., was replicated 4 times, and was done in a laboratory under 22+2° C., 55+5% RH, 16:8 (L:D) h.
Data from multiple choice assays on the percent of male and female D. suzukii adults responding to each volatile were compared using ANOVA (Minitab version 17; Minitab Inc., State College, PA, USA). The ANOVA model included treatment, sex, and their interaction as fixed factors and block (replicate) as a random factor. A multi-comparison Tukey test (Minitab) was used to determine differences among treatments. Percent data were arcsine square-root transformed prior to ANOVA. Pairwise choice assays were analyzed using G-tests with William's correction. Non-responders were excluded from the statistical analyses.

SMILES | number of flies captured relative to the control
CC(C)CO [2-methyl-1-propanol] | reduced the number of flies captured relative to the control
CCOC(=O)C(C)C [ethyl 2-methylpropanoate] | reduced the number of flies captured relative to the control
C=Cc1ccccc1 [styrene] | trapped a higher number of flies than the control
CC(C)CCO [3-methyl-1-butanol] | reduced the number of flies captured relative to the control
CCC(C)CO (stereo not shown) [2-methyl-1-butanol] | captured a similar number of flies as the control
CCOC(=O)CC [ethyl propanoate] | reduced the number of flies captured relative to the control
C=C(C)CCO [3-methyl-3-buten-1-ol] | reduced the number of flies captured relative to the control
CCC/C=C/CO [(E)-2-hexen-1-ol] | captured a similar number of flies as the control
CCOC(=O)CC(C)(C)O [ethyl 3-hydroxy-3-methylbutanoate, Ethyl 3-hydroxy-3-methylbutanoate] | captured a similar number of flies as the control
CC(=O)C(C)O (stereo not shown) [3-hyrdroxy-2-butanone, 3-Hydroxy-2-butanone] | trapped a higher number of flies than the control
CCOC(=O)OCC [diethyl carbonate] | reduced the number of flies captured relative to the control
CC(C)C=O [2-methylpropanal] | reduced the number of flies captured relative to the control
